Reference: BindingDB's records for doi:10.1021/ml2002482 (2012)

Experiment: Inhibition of human recombinant ICAM-1 adhesion into human Jurkat cells after 1 hr

CS(=O)(=O)c1cccc(C[C@H](NC(=O)c2c(Cl)cc3c(c2Cl)CCN(C(=O)c2ccc4ccoc4c2)C3)C(=O)O)c1
IC50: 2.98 nM
